The target of one assay is T1, human TLR7 (Homo sapiens, UniProt Q9NYK1).
T1 construct: host or cells: HEK-Blue TLR7 cells (engineered human embryonic kidney cells)
T1 sequence (Q9NYK1 27-1049): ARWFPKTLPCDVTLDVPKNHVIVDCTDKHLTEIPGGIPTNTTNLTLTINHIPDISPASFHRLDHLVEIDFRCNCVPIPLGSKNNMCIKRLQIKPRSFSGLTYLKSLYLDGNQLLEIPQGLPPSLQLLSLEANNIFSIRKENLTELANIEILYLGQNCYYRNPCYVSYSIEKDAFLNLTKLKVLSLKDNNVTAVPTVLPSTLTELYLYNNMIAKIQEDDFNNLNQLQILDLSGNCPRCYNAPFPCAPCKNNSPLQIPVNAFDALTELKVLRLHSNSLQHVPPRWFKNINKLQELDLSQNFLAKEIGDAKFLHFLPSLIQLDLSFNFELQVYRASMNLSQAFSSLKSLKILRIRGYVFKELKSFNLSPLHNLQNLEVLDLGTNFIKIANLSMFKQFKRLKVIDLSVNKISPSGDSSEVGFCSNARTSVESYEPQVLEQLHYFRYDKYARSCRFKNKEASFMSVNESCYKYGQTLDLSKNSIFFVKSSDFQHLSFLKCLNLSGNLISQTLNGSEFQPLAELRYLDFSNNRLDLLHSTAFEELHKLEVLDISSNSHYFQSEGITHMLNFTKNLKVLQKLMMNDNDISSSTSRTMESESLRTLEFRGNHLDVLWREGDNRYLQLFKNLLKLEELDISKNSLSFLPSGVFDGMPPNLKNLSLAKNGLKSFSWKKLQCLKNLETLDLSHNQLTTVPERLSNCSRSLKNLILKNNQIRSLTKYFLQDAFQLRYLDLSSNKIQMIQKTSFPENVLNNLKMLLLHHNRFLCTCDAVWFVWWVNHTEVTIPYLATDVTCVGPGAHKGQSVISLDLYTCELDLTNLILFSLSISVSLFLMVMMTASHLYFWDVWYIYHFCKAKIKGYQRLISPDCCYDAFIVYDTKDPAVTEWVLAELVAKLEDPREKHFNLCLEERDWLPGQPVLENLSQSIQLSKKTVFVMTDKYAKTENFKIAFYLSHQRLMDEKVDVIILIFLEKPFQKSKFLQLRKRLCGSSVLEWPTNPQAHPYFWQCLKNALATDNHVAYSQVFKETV
Put plainly: Human TLR7 agonist activity reporter assay (HEK-Blue TLR7 cells, SEAP reporter). The class given is cell-based. The settings on record: 18 h treatment. The gist of the method: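 HEK-Blue TLR7 cells (15,000/well) treated with compound for 18 h at 37 °C, 5% CO2. Secreted SEAP measured with Quanti-Blue, 30 min, OD 620 nm. EC50 taken as concentration giving half-maximal response between baseline and maximum.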

For the next assay, the system named is CD69. Put plainly: Induction of CD69 in human whole blood. The format is cell-based. The following applies: 17 h, CD69 surface staining, 100% set to 1 uM resiquimod. On the procedure: The induction of Type I interferon (IFN) MX-1 genes and the B-cell activation marker CD69 are downstream events that occur upon activation of the TLR7 pathway. The following is a human whole blood assay that measures their induction in response to a TLR7 agonist.
Heparinized human whole blood was harvested from human subjects and treated with test TLR7 agonist compounds at 1 mM. The blood was diluted with RPMI 1640 media and Echo was used to predot 10 nL per well giving a final concentration of 1 uM (10 nL in 10 uL of blood). After mixing on a shaker for 30 sec, the plates were covered and placed in a 37° C. chamber for o/n=17 hrs. Fixing/lysis buffer was prepared (5×->1× in H2O, warm at 37° C.; Cat #BD 558049) and kept the perm buffer (on ice) for later use.
For surface markers staining (CD69): prepared surface Abs: 0.045 ul hCD14-FITC (ThermoFisher Cat #MHCD1401)+0.6 ul hCD19-ef450 (ThermoFisher Cat #48-0198-42)+1.5 ul hCD69-PE (cat #BD555531)+0.855 ul FACS buffer. Added 3 ul/well, spin1000 rpm for 1 min and mixed on shaker for 30 sec, put on ice for 30 mins. Stop stimulation after 30 minutes with 70 uL of prewarmed 1× fix/lysis buffer and use Feliex mate to resuspend (15 times, change tips for each plate) and incubate at 37C for 10 minutes.
Centrifuge at 2000 rpm for 5 minutes aspirate with HCS plate washer, mix on shaker for 30 sec and then wash with 70 uL in dPBS and pelleted 2×s (2000 rpm for 5 min) and 50 ul wash in FACS buffer pelleted 1×s(2000 rpm for 5 min). Mix on shaker for 30 sec. For Intracellular markers staining (MX-1): Add 50 ul of BD Perm buffer III and mix on shaker for 30 sec. Incubate on ice for 30 minutes (in the dark). Wash with 50 uL of FACS buffer 2× (spin @2300 rpm×5 min after perm) followed by mixing on shaker for 30 sec. Resuspended in 20 ul of FACS buffer containing MX1 antibody ( ) (4812)-Alexa 647: Novus Biologicals #NBP2-43704AF647) 20 ul FACS bf+0.8 ul hlgG+0.04 ul MX-1. Spin 1000 rpm for 1 min, mix on shaker for 30se and the samples were incubated at RT in the dark for 45 minutes followed by washing 2×FACS buffer (spin @2300 rpm×5 min after perm). Resuspend 20 ul (35 uL total per well) of FACS buffer and cover with foil and place in 4° C. to read the following day. Plates were read on iQuePlus. The results were loaded into toolset and IC50 curves are generated in curve master. The y-axis 100% is set to 1 uM of resiquimod.

Setting [1] is: Table A2, read-out: hTLR7 Agonism EC50.
The mark [2] stands for this setting: Table A2, read-out: hWB CD69 EC50.
[3] abbreviates: average where assay repeated, Table A1, read-out: hTLR7 Agonism EC50.
[4] abbreviates: average where assay repeated, Table A1, read-out: hWB CD69 EC50.

This is an account of results in US20230118688A1, “1H-PYRAZOLO[4,3-d]PYRIMIDINE COMPOUNDS AS TOLL-LIKE RECEPTOR 7 (TLR7) AGONISTS” (BRISTOL-MYERS SQUIBB COMPANY, priority 2020, published 2023).

Where two headings read alike, the source gives them in different places.

One may read the EC50 as the midpoint of the concentration-response curve. On to `CCC[C@@H](CCO)Nc1nc(N)nc2cnn(Cc3cc(CN4CC[C@H](O)C4)c(F)cc3OC)c12` [Compound 176, (3S)-1-({5-[(5-amino-7-{[(3S)-1-hydroxyhexan-3-yl]amino}-1H-pyrazolo[4,3-d]pyrimidin-1-yl)methyl]-2-fluoro-4-methoxyphenyl}methyl) pyrrolidin-3-ol], for which the 50% effective concentration (EC50) is 57.2 nM on human TLR7 (setting [1]) and 5.7 nM in the assay with CD69 (setting [2]).
On to `CCCCNc1nc(N)nc2cnn(Cc3cc(CN(C)C(=O)CCO)ccc3OC)c12` [Compound 147, N-[(3-{[5-amino-7-(butyl-amino)-1H-pyrazolo[4,3-d]pyrimidin-1-yl]methyl}-4-methoxyphenyl)methyl]-3-hydroxy-N-methylpropanamide], for which the EC50 came out at 170 nM at human TLR7 (setting [3]) and 455 nM in the assay with CD69 (setting [4]).
The like results for `CCCCNc1nc(N)nc2cnn(Cc3cc(CN(C)CCN(C)C)ccc3OC)c12` [Compound 133, N7-butyl-1-{[5-({[2-(dimethylamino)ethyl](methyl)-amino}methyl)-2-methoxy-phenyl]methyl}-1H-pyrazolo [4,3-d]pyrimidine-5,7-diamine] were, in that order, 176 nM and 17 nM.
Regarding `CCC[C@@H](CCO)Nc1nc(N)nc2cnn(Cc3cc(CNC)ncc3OC)c12` [Compound 178, (3S)-3-{[5-amino-1-({5-methoxy-2-[(methylamino)methyl]pyridin-4-yl}methyl)-1H-pyrazolo[4,3-d]pyrimidin-7-yl]amino}hexan-1-ol], the concentration for a half-maximal effect (EC50) was determined as 617 nM at human TLR7 (setting [1]) and 33.9 nM with CD69 (setting [2]).
With `CCCCNc1nc(N)nc2cnn(Cc3cc(CN4CCN(CCO)CC4)ccc3OC)c12` [Compound 127, 2-{4-[(3-{[5-amino-7-(butylamino)-1H-- pyrazolo[4,3-d]pyrimidin-1-yl]methyl}-4-methoxy-phenyl)methyl]piperazin-1-yl}ethan-1-ol], the EC50 on human TLR7 (setting [3]) was found to be 107 nM; in the assay with CD69 (setting [4]) it was 47.5 nM.
In the case of `CCCCNc1nc(N)nc2cnn(Cc3cc(CNC4CCCC4)ccc3OC)c12` [Compound 120], the figures for the EC50 on human TLR7 (setting [3]) and with CD69 (setting [4]) were 548 nM and 288 nM, respectively.
As for `CCC[C@@H](CCO)Nc1nc(N)nc2cnn(Cc3cc(CN4CCNCC4)c(F)cc3OC)c12` [Compound 167, (3S)-3-{[5-amino-1-({4-fluoro-2-methoxy-5-[(piperazin-1-yl)methyl]phenyl}methyl)-1H-pyrazolo[4,3-d]pyrimidin-7-yl]amino}hexan-1-ol], the EC50 stood at 189 nM at human TLR7 (setting [1]) and 145 nM with CD69 (setting [2]).
In the case of `COc1ccc(CN2CC(OC)C2)cc1Cn1ncc2nc(N)nc(NCC3CC4(CC4)C3)c21` [Compound 149, 1-({2-methoxy-5-[(3-methoxyazetidin-1-yl)methyl]-phenyl}methyl)-N7-({spiro-[2.3]hexan-5-yl}methyl)-1H-pyrazolo[4,3-d]pyrimidine-5,7-diamine], the figures for the half-maximal effective concentration (EC50) at human TLR7 (setting [3]) and in the assay on CD69 (setting [4]) were 271 nM and 525 nM, respectively.
Take `CCCCNc1nc(N)nc2cnn(Cc3cc(CN(C)C(=O)CCN(C)C)ccc3OC)c12` [Compound 128, N-[(3-{[5-amino-7-(butyl-amino)-1H-pyrazolo[4,3-d]pyrimidin-1-yl]methyl}-4-methoxyphenyl)methyl]-3-(dimethylamino)-N-methylpropanamide]: the EC50 worked out at 56.2 nM at human TLR7 (setting [3]) and 12.6 nM in the assay on CD69 (setting [4]).
For `CCCCNc1nc(N)nc2cnn(Cc3cc(CN(C)C(=O)CCOC)ccc3OC)c12` [Compound 146, N-[(3-{[5-amino-7-(butyl-amino)-1H-pyrazolo[4,3-d]pyrimidin-1-yl]methyl}-4-methoxyphenyl)methyl]-3-methoxy-N-methylpropanamide] the same measures were 499 nM and at least 1000 nM.
Turning to “N7-butyl-1-[(2-methoxy-5- {[(1S,4S)-5-methyl-2,5- diazabicyclo[2.2.1]heptan-2- yl]methyl}phenyl)methyl]- 1H-pyrazolo[4,3-d] pyrimidine-5,7-diamine [Compound 142]”, the 50% effective concentration (EC50) on human TLR7 (setting [3]) worked out at 94.2 nM; with CD69 (setting [4]), 29.5 nM.
